How the values were obtained:
[1] = system: mice with induction of colitis; conditions: oral administration; cited from earlier work
Pin1 = molecular target: T1, Pin1 (Homo sapiens, UniProt Q13526); assay: Cell-based Pin1 inhibition assay with AMPK phosphorylation level as index (293T cells); design: key: +++: a higher level of AMPK phosphorylation is promoted, as compared with C1; ++: a similar level of AMPK phosphorylation is promoted, as compared with C1; +: a lower level of AMPK phosphorylation is promoted, as compared with C1; −: no or almost no promotion is found in AMPK phosphorylation; conditions: compound at 100 μM for 30 minutes, then 10 mM 2-DG for one hour, pAMPK blot compared with C1
T1 construct: endogenous in cells; host or cells: 293T cells
Description: To evaluate the inhibitory activity of each compound synthesized in Example 1 against the function of Pin1, a cell-based assay was performed according to the method previously developed by the inventors (Yusuke Nakatsu et al., Journal of Biological Chemistry, 2015, Vol. 290, No. 40, pp. 24255-24266), in which the phosphorylation level of AMPK (AMP-activated protein kinase), a protein whose phosphorylation is inhibited by Pin1, was examined as an index.
Briefly, 293T cells were plated on a collagen-coated 24-well plate. Forty-eight hours later, each compound synthesized in the preceding example (at 100 μM) was added to the plate, and the plate was left to stand in an incubator for 30 minutes. Subsequently, 10 mM 2-DG was added to the plate, and one hour later, each sample was collected with a buffer containing mercaptoethanol and SDS.
SDS-PAGE and blotting were performed, and blocking was then performed with 3% BSA for 1 hour, according to conventional protocols. Subsequently, a pAMPK antibody (Cell Signaling; diluted 1:2000 in Can Get Signal Solution 1, Toyobo) as a primary antibody, and an HRP-linked anti rabbit IgG (GE Healthcare; diluted 1:4000 in Can Get Signal Solution 2, Toyobo) as a secondary antibody were allowed to react at ambient temperature for 1 hour prior to detection.
The inhibitory activity against the function of Pin1 was evaluated by comparing the inhibition levels between each compound and a known Pin1 inhibitor, C1, as indicated below: […]

[2] = system: non-alcoholic steatohepatitis (NASH) model mice (HFDT); assay: NASH treatment study in HFDT-fed NASH model mice; conditions: for increase in liver weight / blood ALT (GPT) value, index of liver inflammation: HFDT NASH mice, 8 weeks; for increase in liver weight: FIG. 1 (A); for blood ALT (GPT) value, index of liver inflammation: FIG. 1 (B)
Description: Animal experiments were performed using non-alcoholic steatohepatitis (NASH) model mice to test the compounds according to the present invention for the therapeutic effect on NASH.
NASH model mice (hereinafter referred to as “NASH mice”) were produced by feeding a high-fat diet containing trans fatty acids (HFDT) to individual male laboratory mice (C57BL/6J) for 8 weeks. […] In addition, a normal diet was given to individual male laboratory mice (C57BL/6J) for 8 weeks to prepare control mice.

DU145 cells = assay: Cancer treatment study, DU145 tumors implanted in nude mice; format: in vivo, nude mice (BALB/c-slc-nu/nu mice); conditions: intraperitoneal 2.5 mg/kg/day, 5 times a week, 9 weeks, compared to control mice; for tumor size growth, first tumor (tumor volume ratio): FIG. 4 (A); for tumor size growth, second tumor (volume): FIG. 4 (B)
Description: An animal experiment was performed using mice transplanted with cancer cells to test the therapeutic effects of the compounds according to the present invention on cancer.
A first tumor (DU145 cells) with Matrigel plug was implanted in the middle of the upper back of nude mice (BALB/c-slc-nu/nu mice).
Five weeks after the first implantation, a second tumor (DU145 cells) was implanted in the middle of the left and right sides of the back of the nude mice.
No compound was administered to a group of mice to prepare control mice.
The volume of the second tumor was so small and not measurable at the beginning of administration of each compound. Therefore, the result from the second tumor is expressed in volume (mm^3), but not in ratio.

[3] = system: NASH mice (methionine-choline-deficient diet); assay: NASH treatment study in MCDD-fed NASH mice, liver sections with Azan staining; format: in vivo, mice (C57BL/6J); conditions: NASH mice given a MCDD, 8 weeks; intraperitoneal 2.5 mg/kg/day three times a week; FIG. 3 (C)
Description: Next, an animal experiment was performed on NASH mice that were produced by feeding a methionine-choline-deficient diet (MCDD).

colon cancer model mice = assay: Colon cancer model mice (AOM/DSS) treatment study; format: in vivo; conditions: oral 1.25 mg/kg/day three times a week from Day 6, dissected on Day 89, versus control
Description: Colon cancer model mice were produced by intraperitoneal administration of azoxymethane (AOM) at a dose of 12 mg/kg to laboratory mice on Day 1, and then starting a course consisting of 5-day oral administration of 3% sodium dextran sulfate (DSS) and 16-day no DSS administration, on Day 6, and repeating the course 4 times, to induce colon inflammation and subsequent cancer development.
On Day 89, the colon cancer model mice were dissected to count the number of developed colon cancer tissues and to measure tumor area occupied by a single colon cancer tissue (total tumor area/tumor tissue number).

[4] = intraperitoneal 2.5 mg/kg/day or oral 5.0 mg/kg/day, three times a week

T1 sequence (Q13526 whole entry): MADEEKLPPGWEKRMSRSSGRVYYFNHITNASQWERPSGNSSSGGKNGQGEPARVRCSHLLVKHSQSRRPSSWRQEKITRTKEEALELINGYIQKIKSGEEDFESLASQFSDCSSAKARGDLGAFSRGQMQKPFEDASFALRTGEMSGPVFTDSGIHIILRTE

SMILES | Pin1 inhibition activity (Pin1) | other results
COc1ccc(-c2cc(C(=O)N[C@H](Cc3ccc4ccccc4c3)C(=O)O)c(C)o2)cc1 [Compound C1, (R)-2-(5-(4-methoxyphenyl)-2-methylfuran-3-carboxamido)-3-(naphthalene-6-yl)propanoic acid] |  | colitis development [1]: prevention of colitis development
COC(=O)c1ccc2cc(C(=O)N[C@H](Cc3ccc4ccccc4c3)C(=O)O)ccc2c1 [Compound H-62] | + | 
O=C(N[C@H](Cc1ccc2ccccc2c1)C(=O)O)OCc1ccccc1 [Compound H-65, reference compound] | − | 
O=C(O)[C@@H](Cc1ccc2ccccc2c1)NC(=O)C1(O)c2ccccc2-c2ccccc21 [Compound H-101] | ++ | 
O=C(CC1c2ccccc2-c2ccccc21)N[C@H](Cc1ccc2ccccc2c1)C(=O)O [Compound H-103] | +++ | 
O=C(N[C@H](Cc1ccc2ccccc2c1)C(=O)OCc1ccccc1)C1c2ccccc2-c2ccccc21 [Compound H-105] | − | 
O=C(N[C@H](Cc1ccc2ccccc2c1)C(=O)O)C1c2ccccc2-c2ccccc21 [Compound H-109] | +++ | 
COC(=O)[C@@H](Cc1ccc2ccccc2c1)NC(=O)n1c2ccccc2c2ccccc21 [Compound H-144] |  | increase in liver weight [2, 4]: significantly reduced; blood ALT (GPT) value, index of liver inflammation [2, 4]: decreased; tumor size growth, first tumor (tumor volume ratio) (DU145 cells): suppressed; tumor size growth, second tumor (volume) (DU145 cells): suppressed
O=C(Cc1ccc2ccccc2c1)N[C@H](Cc1ccc2ccccc2c1)C(=O)O [Compound H-158] | ++ | 
O=C(O)[C@@H](Cc1ccc2ccccc2c1)NC(=O)N(c1ccccc1)c1ccccc1 [Compound H-161] | ++ | 
O=C(O)[C@@H](Cc1ccc2ccccc2c1)NC(=O)N1c2ccccc2Oc2ccccc21 [Compound H-162] | ++ | 
O=C(O)[C@@H](Cc1ccc2ccccc2c1)NC(=O)n1c2ccccc2c2ccccc21 [Compound H-163] | ++ | fat accumulation in liver tissue (microscopic observation) [3]: significantly reduced fat accumulation; hepatic fibrosis (Azan staining) [3]: significantly inhibited; increase in liver weight [2, 4]: significantly reduced; blood ALT (GPT) value, index of liver inflammation [2, 4]: decreased; fat accumulation in liver tissue (microscopic observation) ([2]; NASH mice given a HFDT, FIG. 2 (C)): significantly reduced fat accumulation; number of colon cancer tissues (colon cancer model mice): no significant difference; tumor area occupied by a single colon cancer tissue (colon cancer model mice; FIG. 5): reduction in tumor area; tumor size growth, first tumor (tumor volume ratio) (DU145 cells): suppressed; tumor size growth, second tumor (volume) (DU145 cells): suppressed
O=C(O)[C@@H](Cc1ccc2ccccc2c1)NC(=O)N1c2ccccc2C=Cc2ccccc21 [Compound H-164] | + | 
O=C(O)[C@@H](Cc1ccc2ccccc2c1)NC(=O)N1c2ccccc2CCc2ccccc21 [Compound H-178] | +++ | 
O=C(Nc1ccccc1Oc1ccccc1)N[C@H](Cc1ccc2ccccc2c1)C(=O)O [Compound H-334] | +++ | 
O=C(Nc1ccc(C(=O)c2ccccc2)cc1)N[C@H](Cc1ccc2ccccc2c1)C(=O)O [Compound H-341] | ++ | 
COC(=O)[C@@H](Cc1ccc2ccccc2c1)NC(=O)Cn1c2ccccc2c2ccccc21 [Compound H-521] | + | 
O=C(Cn1c2ccccc2c2ccccc21)N[C@H](Cc1ccc2ccccc2c1)C(=O)O [Compound H-536] | + | 
O=C1C=CC(=O)c2c(O)cccc21 [Juglone, reference compound] |  | increase in liver weight ([2]; oral 5.0 mg/kg/day three times a week): significantly reduced; colitis development [1]: prevention of colitis development

From patent US11504379B2, “Amide compound, and Pin1 inhibitor, therapeutic agent for inflammatory diseases and therapeutic agent for cancer that use the same” (Hiroshima University, priority 2017, dated 2022)
